Test results as given in patent US9447187B2, “Use of an anti-CD200 antibody for prolonging the survival of allografts” (Alexion Pharmaceuticals, Inc., priority 2011, dated 2016).
Values joined by “and” are separate entries in the source; they are usually repeats but may differ in a detail not shown here. Equal values may be shown once.

Test system: cardiac allograft (C57BL/6 to BALB/c mice)
Experiment: C57BL/6 to BALB/c fully MHC-mismatched mouse heart transplantation model (graft survival, pulsation)
Type: in vivo
Protocol: The studies described in this section examined graft survival in a C57BL/6 to BALB/c fully MHC-mismatched mouse heart transplantation model. Each experimental group included 4-6 animals. Some of the experimental groups were treated with antibodies. […] Antibody 4 is a control, murine monoclonal antibody that shares a variable region with Antibody 2. […]
An experiment was also performed to evaluate whether use of an anti-CD200 antibody can reduce the duration or amount of mycophenolate mofetil that is necessary to prolong the survival of an allograft in a recipient mammal. First, a pilot experiment was performed to determine the dose of, and duration of, mycophenolate mofetil required to prolong allograft survival in mice. As described in Example 3, these studies examined graft survival in a C57BL/6 to BALB/c fully MHC-mismatched mouse heart transplantation model. Each experimental group included five (5) animals. The three experimental groups were treated as follows:
Group 1-PE (pilot experiment): cardiac allograft-bearing mice were orally administered mycophenolate mofetil at a dose of 120 mg/kg each day of the study beginning at the time of transplant;
Group 2-PE: cardiac allograft-bearing mice were orally administered mycophenolate mofetil at a dose of 80 mg/kg each day of the study beginning at the time of transplant; and
Group 3-PE: cardiac allograft-bearing mice were orally administered FK-506 at a dose of 16 mg/kg for each day of the study beginning at the time of transplant. […]
(§1) As described in Example 3, these studies examined graft survival in a C57BL/6 to BALB/c fully MHC-mismatched mouse heart transplantation model. Each experimental group included five (5) animals. The five experimental groups were treated as follows: […]
as §1, with “The three” for “The five”, “as follows, with treatment beginning at the time of transplantation:” for “as follows:”

Compound | Individual Survival (FK-506 alone, 16 mg/kg orally each day of the study, 16 mg/kg) | Individual Survival (mycophenolate mofetil alone, 80 mg/kg orally each day of the study (pilot experiment), 80 mg/kg) | Mean Survival (mycophenolate mofetil alone, 80 mg/kg orally each day of the study (pilot experiment), listed as MMF, 80 mg/kg) | Individual Survival (mycophenolate mofetil alone, 120 mg/kg orally each day of the study (pilot experiment), 120 mg/kg)
C=CC[C@@H]1/C=C(\C)C[C@H](C)C[C@H](OC)[C@H]2O[C@@](O)(C(=O)C(=O)N3CCCC[C@H]3C(=O)O[C@H](/C(C)=C/[C@@H]3CC[C@@H](O)[C@H](OC)C3)[C@H](C)[C@@H](O)CC1=O)[C@H](C)C[C@@H]2OC [FK-506, tacrolimus] | 23 days and 25 days (2×) and 26 days and 27 days |  |  | 
COc1c(C)c2c(c(O)c1C/C=C(\C)CCC(=O)OCCN1CCOCC1)C(=O)OC2 [mycophenolate mofetil] |  | 18 days and 19 days and 20 days and 22 days (2×) | approximately 20.2 days | 20 days and 21 days and 22 days and 23 days and 25 days
